Measured values as given in PMC9105102, “Development and Biochemical Characterization of Self-Immolative Linker Containing GnRH-III-Drug Conjugates” (International Journal of Molecular Sciences, 2022).

Tests used:
[1] = target: T1, GnRH-R (membranes of human pituitary) (Homo sapiens, UniProt P30968); assay: Radioligand competition assay, displacement of [125I]-GnRH-I-[6D-Trp] (triptorelin), human pituitary membranes; assay type: binding
T1 construct: GnRH-Rs expressed on human pituitary and human prostate cancer cells; from tissue; host or cells: normal human pituitary (anterior lobe), autopsy; membrane homogenate
T1 sequence (P30968 1-328): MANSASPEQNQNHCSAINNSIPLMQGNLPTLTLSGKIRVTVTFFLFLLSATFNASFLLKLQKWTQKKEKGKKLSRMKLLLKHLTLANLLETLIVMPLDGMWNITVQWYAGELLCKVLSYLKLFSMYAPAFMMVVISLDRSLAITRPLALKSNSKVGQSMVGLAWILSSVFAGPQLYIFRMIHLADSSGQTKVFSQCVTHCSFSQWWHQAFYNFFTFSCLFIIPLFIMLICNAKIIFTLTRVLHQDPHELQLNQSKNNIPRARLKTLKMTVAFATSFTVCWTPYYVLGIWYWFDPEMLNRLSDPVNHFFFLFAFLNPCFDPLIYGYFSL
Description: (§1) A ligand competition assay with [^125I]-GnRH-I-[^6D-Trp] as radioligand was performed to examine the binding affinity of the GnRH-III-drug conjugates to GnRH-Rs expressed on human pituitary and human prostate cancer cells. Human prostate cancer cells were derived from patients at the time of initial surgical treatment, while tissue samples from normal human pituitary (anterior lobe) were obtained by autopsy. All subjects were informed and gave their consent for inclusion before they participated in the study. The preparation of the cell membranes was carried out according to the literature. The chloramines-T method was used to prepare radioiodinated GnRH-I agonist triptorelin which was purified by RP-HPLC [10, 38, 39, 47]. The displacement of [^125I]-GnRH-I-[^6D-Trp] was studied in an in vitro ligand competition assay to determine the binding affinities of the non-radio-labeled GnRH-III bioconjugates to GnRH-RI [10, 11, 38, 39]. Membrane homogenates containing […] protein were incubated in duplicate or triplicate with 60–80,000 cpm [^125I]-GnRH-I-[^6D-Trp] and rising concentration (1 pM—1 µM) of nonradioactive bioconjugates as competitors in a total volume of […] binding buffer. Protein concentration was determined by the method of Bradford using a Bio-Rad protein assay kit (Bio-Rad Laboratories, Hercules, CA, USA). The LIGAND-PC computerized curve-fitting program of Munson and Rodbard was used to determine the receptor binding characteristics and IC50 values.

[2] = tested on: A2780 human ovarian cancer cells; assay: cells; assay type: cell-based; conditions: A2780 cells; treatment 24 h (Dau conjugates) or 6 h (PTX compounds), viability at 72 h; mean ± SE of two to three determinations; read-out: A2780 IC50
Description: (§2) For cultivation of A2780 human ovarian and Panc-1 human pancreatic cancer cells, RPMI-1640 medium with 10% FBS, L-glutamine and 1% Penicillin-Streptomycin were used. Cells were cultured in appropriate plastic flasks at 37 °C (humidified atmosphere, 5% CO2/95% air).
(§3) A set-up of 96-well plates was used to study the in vitro antiproliferative activity. Therefore, 5 × 10^3 cells in 100 µL complete medium were seeded to each well. After 24 h, complete medium was removed and cells were treated with 200 µL bioconjugate solution in serum-free medium (concentration range 0.0032–50 µM, control wells were treated with serum-free medium). Medium was taken out after 6 h treatment (PTX conjugates) or 24 h (Dau conjugates), replaced by complete medium and incubation was continued. To determine the cell viability, medium was removed after 72 h and 100 µL resazurin solution [45] (10% Tox-8 in FBS-free medium) was added to each well, followed by additional incubation of 2–3 h. A Tecan infinite 200 pro microplate reader (Tecan Group Ltd., Zürich, Switzerland) was used for fluorescence detection (λEx = 560 and λEm = 590 nm). Experiments were performed at least twice, using three parallels per concentration. The cell viability (and IC50 values) was calculated with GraphPad Prism using a nonlinear regression (sigmoidal dose-response).

[3] = tested on: Panc-1 human pancreatic cancer cells; assay: cells; assay type: cell-based; conditions: Panc-1 cells; treatment 24 h (Dau conjugates) or 6 h (PTX compounds), viability at 72 h; mean ± SE of two to three determinations; read-out: Panc-1 IC50
Description: as §2, §3

[4] = target: T2, GnRH-R (membranes of human prostate cancer specimens) (Homo sapiens, UniProt P30968); assay: Radioligand competition assay, displacement of [125I]-GnRH-I-[6D-Trp] (triptorelin), human prostate cancer membranes; conditions: mean ± SE of two to three determinations, read-out: IC50 Prostate Cancer, competitive inhibition of [125I][6D-Trp]-GnRH-I binding
T2 construct: GnRH-Rs expressed on human pituitary and human prostate cancer cells; from tissue; host or cells: human prostate cancer specimens from patients (surgery); membrane homogenate
T2 sequence (P30968 1-328): T1 sequence (P30968 1-328)
Description: as §1

[5] = Solubility in acidic aqueous buffer (remark); assay type: physicochemical; conditions: compared with the ΔHis-D-Tic compounds
[6] = Degradation of drug conjugates in presence of rat liver lysosomal homogenate (LC-MS); assay type: in vitro ADME; conditions: pH 5, 37 °C; for release of free Dau by lysosomal enzymes: up to 24 h; for release of free Dau by lysosomal enzymes / release of the smallest Dau-containing metabolite H-Lys(Dau-glutaryl)-OH: LC-MS
Description: The preparation of the rat liver lysosomal homogenate was carried out as recently reported. A Qubit Protein Assay Kit (Thermo Fischer Scientific, Waltham, MA, USA) was used to examine the concentration of the lysosomal proteins.
Initially, a stock solution of the GnRH-III-Dau conjugates in water (5 µg/µL) was prepared. For the degradation reaction, the conjugates and the lysosomal homogenate were diluted together in 0.2 M NaOAc buffer (pH 5) to a concentration of 0.25 µg/µL each. These mixtures were kept at 37 °C and at distinct time points (5 min, 1 h, 2 h, 4 h, 8 h and 24 h), 15 µL of each sample were quenched with 2 µL acetic acid and analyzed by LC-MS (System I).
The GnRH-III-PTX conjugates were dissolved in DMSO to a concentration of 10 mM. The reaction was carried out in 0.2 M NaOAc buffer (pH 5) with 10 µM conjugate and 0.025 µg/mL lysosomal homogenate. The reaction mixtures were incubated at 37 °C and aliquots of 60 μL were taken at 5 min, 1 h, 2 h, 4 h, 8 h and 24 h and quenched with 5 μL of acetic acid. The analysis of the samples was performed by LC–MS (System-II).

SMILES | IC50 [1] | IC50 [2] | IC50 [3] | IC50 [4] | solubility in acidic aqueous buffer [5] | release of free Dau by lysosomal enzymes [6] | release of the smallest Dau-containing metabolite H-Lys(Dau-glutaryl)-OH [6] | detection of the diamine-PTX fragment ([6]; even after 24 h of incubation)
CCCC(=O)NCCCC[C@H](NC(=O)[C@H](Cc1c[nH]c2ccccc12)NC(=O)[C@H](Cc1c[nH]cn1)NC(=O)[C@@H]1CCC(=O)N1)C(=O)N[C@@H](Cc1c[nH]cn1)C(=O)N[C@@H](CC(=O)O)C(=O)N[C@@H](Cc1c[nH]c2ccccc12)C(=O)N[C@@H](CCCCNC(=O)CCCC(=O)N[C@H](C(=O)N[C@@H](CCCNC(N)=O)C(=O)Nc1ccc(COC(=O)N[C@H]2C[C@H](O[C@H]3C[C@](O)(C(C)=O)Cc4c(O)c5c(c(O)c43)C(=O)c3c(OC)cccc3C5=O)O[C@@H](C)[C@H]2O)cc1)C(C)C)C(=O)N1CCC[C@H]1C(=O)NCC(N)=O [compound 10] | 16.1 ± 2.03 nM | 11200 ± 380 nM | 85600 ± 24300 nM | 13.7 ± 1.87 nM | better solubility | release of free Dau and the formation of several peptide fragments could be confirmed |  | 
CCCC(=O)NCCCC[C@H](NC(=O)[C@H](Cc1c[nH]c2ccccc12)NC(=O)[C@H](Cc1c[nH]cn1)NC(=O)[C@@H]1CCC(=O)N1)C(=O)N[C@@H](Cc1c[nH]cn1)C(=O)N[C@@H](CC(=O)O)C(=O)N[C@@H](Cc1c[nH]c2ccccc12)C(=O)N[C@@H](CCCCNC(=O)CCCC(=O)N[C@H](C(=O)N[C@@H](C)C(=O)Nc1ccc(COC(=O)N[C@H]2C[C@H](O[C@H]3C[C@](O)(C(C)=O)Cc4c(O)c5c(c(O)c43)C(=O)c3c(OC)cccc3C5=O)O[C@@H](C)[C@H]2O)cc1)C(C)C)C(=O)N1CCC[C@H]1C(=O)NCC(N)=O [compound 12] | 17 ± 1.04 nM | 7480 ± 660 nM | 56200 ± 17300 nM | 15.5 ± 0.83 nM | better solubility | release of free Dau and the formation of several peptide fragments could be confirmed |  | 
CCCC(=O)NCCCC[C@H](NC(=O)[C@H](Cc1c[nH]c2ccccc12)NC(=O)[C@H](Cc1c[nH]cn1)NC(=O)[C@@H]1CCC(=O)N1)C(=O)N[C@@H](Cc1c[nH]cn1)C(=O)N[C@@H](CC(=O)O)C(=O)N[C@@H](Cc1c[nH]c2ccccc12)C(=O)N[C@@H](CCCCNC(=O)CCCC(=O)N[C@H]1C[C@H](O[C@H]2C[C@](O)(C(C)=O)Cc3c(O)c4c(c(O)c32)C(=O)c2c(OC)cccc2C4=O)O[C@@H](C)[C@H]1O)C(=O)N1CCC[C@H]1C(=O)NCC(N)=O [compound 23] | 9.7 ± 1.07 nM | 67900 ± 25400 nM | > 100000 nM | 8.61 ± 1.08 nM |  | free Dau could not be detected | confirming the release | 
CCCC(=O)NCCCC[C@H](NC(=O)[C@H]1Cc2ccccc2CN1C(=O)[C@@H]1CCC(=O)N1)C(=O)N[C@@H](Cc1c[nH]cn1)C(=O)N[C@@H](CC(=O)O)C(=O)N[C@@H](Cc1c[nH]c2ccccc12)C(=O)N[C@@H](CCCCNC(=O)CCCC(=O)N[C@H]1C[C@H](O[C@H]2C[C@](O)(C(C)=O)Cc3c(O)c4c(c(O)c32)C(=O)c2c(OC)cccc2C4=O)O[C@@H](C)[C@H]1O)C(=O)N1CCC[C@H]1C(=O)NCC(N)=O [compound 24] | 36.3 ± 3.17 nM | 48140 ± 470 nM | > 100000 nM | 42.7 ± 7.04 nM |  | free Dau could not be detected | confirming the release | 
CCCC(=O)NCCCC[C@H](NC(=O)[C@H]1Cc2ccccc2CN1C(=O)[C@@H]1CCC(=O)N1)C(=O)N[C@@H](Cc1c[nH]cn1)C(=O)N[C@@H](CC(=O)O)C(=O)N[C@@H](Cc1c[nH]c2ccccc12)C(=O)N[C@@H](CCCCNC(=O)CCCC(=O)N(C)CCN(C)C(=O)O[C@@H](C(=O)O[C@H]1C[C@@]2(O)[C@@H](OC(=O)c3ccccc3)[C@@H]3[C@]4(OC(C)=O)CO[C@@H]4C[C@H](O)[C@@]3(C)C(=O)[C@H](OC(C)=O)C(=C1C)C2(C)C)[C@@H](NC(=O)c1ccccc1)c1ccccc1)C(=O)N1CCC[C@H]1C(=O)NCC(N)=O [compound 26] | 23.4 ± 1.67 nM | > 100000 nM | > 100000 nM | 22.2 ± 0.96 nM |  |  |  | could not be detected
